Patent US7851474B2, “Dipiperazinyl ketones and related analogues” (Neurogen Corporation, priority 2005, dated 2010)

Molecular target: T1, chimeric human H3 receptor (Homo sapiens, UniProt Q9Y5N1, E19D)
T1 construct: made in house; host or cells: Sf9 insect cells (baculovirus infection); P2 membrane preparation
Test: Chimeric human H3 receptor GTP binding assay (agonist-stimulated GTP-gamma35S binding, Example 7)
Assay type: biochemical
Settings: assay of Example 7; symbol * in column headed Ki of Table II; read-out: Ki
Source text: This Example illustrates a representative assay for evaluating agonist-stimulated GTP-gamma^35S binding (“GTP binding”) activity. […] This agonist-stimulated GTP binding activity can also be used to detect partial agonism mediated by antagonist compounds. A compound analyzed in this assay is referred to herein as a “test compound.”
Four independent baculoviral stocks (one directing the expression of the chimeric human H3 receptor and three directing the expression of each of the three subunits of a heterotrimeric G-protein) are used to infect a culture of Sf9 cells as described above. P2 membranes are prepared as described above, and agonist-stimulated GTP binding on the P2 membranes is assessed using histamine (Sigma Chemical Co., St. Louis, Mo.) as agonist in order to ascertain that the receptor/G-protein-alpha-beta-gamma combination(s) yield a functional response as measured by GTP binding. P2 membranes are resuspended by Dounce homogenization (tight pestle) in GTP binding assay buffer (50 mM Tris pH 7.4, 120 mM NaCl, 5 mM MgCl2, 2 mM EGTA, 1 mg/ml BSA, 0.2 mg/ml bacitracin, 0.02 mg/ml aprotinin, 0.01 mg/ml saponin, 10 μM GDP) and added to assay tubes at a concentration of 35 μg protein/reaction tube. […] In competition experiments, non-radiolabeled test compounds are added to separate reactions at concentrations ranging from 10^−10 M to 10^−6 M along with 1 μM histamine to yield a final volume of 0.20 ml.
Neutral antagonists are antagonists that are substantially free of inherent agonist activity, and include those test compounds that reduce the histamine-stimulated GTP binding activity towards, but not below, baseline levels. In contrast, in the absence of added histamine, inverse agonists reduce the GTP binding activity of the receptor-containing membranes below baseline.
After a 60-min incubation at room temperature, reactions are terminated by vacuum filtration over WHATMAN GF/C filters (pre-soaked in wash buffer, 0.1% BSA) followed by washing with ice-cold wash buffer (50 mM Tris pH 7.4, 120 mM NaCl). The amount of receptor-bound (and thereby membrane-bound) GTP-gamma^35S is determined by measuring the filter-bound radioactivity, preferably by liquid scintillation spectrometry of the washed filters. […] Data is expressed as percent above basal (baseline). The results of GTP binding experiments are analyzed using SIGMAPLOT software (SPSS Inc., Chicago, Ill.).
IC50 values are calculated by non-linear regression analysis of dose-response curves using Kaleidograph (Synergy Software, Reading, Pa.).

T1 sequence (Q9Y5N1 with tags, fused parts or gaps E19D): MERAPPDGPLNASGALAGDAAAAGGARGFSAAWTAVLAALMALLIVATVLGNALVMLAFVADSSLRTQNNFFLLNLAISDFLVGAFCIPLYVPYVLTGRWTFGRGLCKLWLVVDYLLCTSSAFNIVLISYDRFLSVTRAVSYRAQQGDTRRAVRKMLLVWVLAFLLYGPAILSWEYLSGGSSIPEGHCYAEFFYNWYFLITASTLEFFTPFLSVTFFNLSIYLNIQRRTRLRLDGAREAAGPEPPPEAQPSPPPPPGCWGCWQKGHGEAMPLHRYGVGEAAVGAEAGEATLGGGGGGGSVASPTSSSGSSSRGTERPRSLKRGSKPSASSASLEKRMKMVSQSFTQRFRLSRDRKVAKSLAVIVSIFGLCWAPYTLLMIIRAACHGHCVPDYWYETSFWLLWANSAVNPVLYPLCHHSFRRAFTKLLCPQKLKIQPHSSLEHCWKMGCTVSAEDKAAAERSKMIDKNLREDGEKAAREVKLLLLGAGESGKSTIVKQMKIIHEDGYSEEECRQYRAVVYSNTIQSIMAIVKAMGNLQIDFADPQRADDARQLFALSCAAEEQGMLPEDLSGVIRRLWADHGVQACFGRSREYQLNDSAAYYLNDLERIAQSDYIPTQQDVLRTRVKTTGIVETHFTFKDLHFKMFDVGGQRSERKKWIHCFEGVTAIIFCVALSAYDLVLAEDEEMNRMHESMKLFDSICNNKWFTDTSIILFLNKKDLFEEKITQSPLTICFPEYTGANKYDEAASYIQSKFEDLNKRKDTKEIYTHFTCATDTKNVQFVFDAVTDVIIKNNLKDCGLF

Row | SMILES | Ki [nM]
1 | CC(=O)c1cccc(-c2ccc(N3CCN(CC(=O)N4CCN(C5CCC5)CC4)CC3)cc2)c1 [Compound 308, 1-(4′-{4-[2-(4-cyclobutylpiperazin-1-yl)-2-oxoethyl]piperazin-1-yl}biphenyl-3-yl)ethanone] | < 1000
2 | CC(=O)c1ccc(-c2ccc(N3CCN(CC(=O)N4CCN(C5CCC5)CC4)CC3)cc2)cc1 [Compound 309, 1-(4′-{4-[2-(4-cyclobutylpiperazin-1-yl)-2-oxoethyl]piperazin-1-yl}biphenyl-4-yl)ethanone] | < 1000
3 | CC(=O)c1ccc(N2CCN(CC(=O)N3CCN(C4CCC4)CC3)CC2)c2ccccc12 [Compound 310, 1-(4-{4-[2-(4-cyclobutylpiperazin-1-yl)-2-oxoethyl]piperazin-1-yl}-1-naphthyl)ethanone] | < 1000
4 | CCC(=O)c1ccc(N2CCN(CC(=O)N3CCN(C4CCC4)CC3)CC2)cc1 [Compound 312, 1-(4-{4-[2-(4-cyclobutylpiperazin-1-yl)-2-oxoethyl]piperazin-1-yl}phenyl)propan-1-one] | < 1000
5 | CC(C)C(=O)c1ccc(N2CCN(CC(=O)N3CCN(C4CCC4)CC3)CC2)cc1 [Compound 313, 1-(4-{4-[2-(4-cyclobutylpiperazin-1-yl)-2-oxoethyl]piperazin-1-yl}phenyl)-2-methylpropan-1-one] | < 1000
6 | CC(C)(C)C(=O)c1ccc(N2CCN(CC(=O)N3CCN(C4CCC4)CC3)CC2)cc1 [Compound 314, 1-(4-{4-[2-(4-cyclobutylpiperazin-1-yl)-2-oxoethyl]piperazin-1-yl}phenyl)-2,2-dimethylpropan-1-one] | < 1000
7 | O=C(CN1CCN(c2ccc(C(=O)N3CCCCCC3)cc2)CC1)N1CCN(C2CCC2)CC1 [Compound 317, 1-(4-{4-[2-(4-cyclobutylpiperazin-1-yl)-2-oxoethyl]piperazin-1-yl}benzoyl)azepane] | < 1000
8 | COc1cc(N2CCN(CC(=O)N3CCN(C4CCC4)CC3)CC2)ccc1C(C)=O [Compound 318, 1-(4-{4-[2-(4-cyclobutylpiperazin-1-yl)-2-oxoethyl]piperazin-1-yl}-2-methoxyphenyl)ethanone] | < 1000
9 | COc1cc(C(C)=O)ccc1N1CCN(CC(=O)N2CCN(C3CCC3)CC2)CC1 [Compound 319, 1-(4-{4-[2-(4-cyclobutylpiperazin-1-yl)-2-oxoethyl]piperazin-1-yl}-3-methoxyphenyl)ethanone] | < 1000
10 | O=C(CN1CCN(c2ccc(N3CCCC3=O)cc2)CC1)N1CCN(C2CCC2)CC1 [Compound 320, 1-(4-{4-[2-(4-cyclobutylpiperazin-1-yl)-2-oxoethyl]piperazin-1-yl}phenyl)pyrrolidin-2-one] | < 1000
11 | CC(=O)c1ccc(N2CCN(CC(=O)N3CCN(C4CCCCC4)CC3)CC2)cc1 [Compound 321, 1-(4-{4-[2-(4-cyclohexylpiperazin-1-yl)-2-oxoethyl]piperazin-1-yl}phenyl)ethanone] | < 1000
12 | CC(C)C(=O)c1ccc(N2CCN(CC(=O)N3CCN(C4CCCC4)CC3)CC2)cc1 [Compound 325, 1-(4-{4-[2-(4-cyclopentylpiperazin-1-yl)-2-oxoethyl]piperazin-1-yl}phenyl)-2-methylpropan-1-one] | < 1000
13 | CC(C)(C)C(=O)c1ccc(N2CCN(CC(=O)N3CCN(C4CCCC4)CC3)CC2)cc1 [Compound 326, 1-(4-{4-[2-(4-cyclopentylpiperazin-1-yl)-2-oxoethyl]piperazin-1-yl}phenyl)-2,2-dimethylpropan-1-one] | < 1000
14 | CC(=O)c1ccc(N2CCN(CC(=O)N3CCN(CC(C)C)CC3)CC2)cc1 [Compound 328, 1-(4-{4-[2-(4-isobutylpiperazin-1-yl)-2-oxoethyl]piperazin-1-yl}phenyl)ethanone] | < 1000
15 | CC(=O)c1ccc(N2CCN(CC(=O)N3CCN(C(C)C)CC3)CC2)cc1 [Compound 329, 1-(4-{4-[2-(4-isopropylpiperazin-1-yl)-2-oxoethyl]piperazin-1-yl}phenyl)ethanone] | < 1000
16 | CCC(C)N1CCN(C(=O)CN2CCN(c3ccc(C(C)=O)cc3)CC2)CC1 (stereo not drawn) [Compound 330, 1-(4-{4-[2-(4-sec-butylpiperazin-1-yl)-2-oxoethyl]piperazin-1-yl}phenyl)ethanone] | < 1000
17 | CC(O)c1ccc(N2CC3CC2CN3CC(=O)N2CCN(C3CCC3)CC2)cc1 (stereo not drawn) [Compound 331, 1-(4-{5-[2-(4-cyclobutylpiperazin-1-yl)-2-oxoethyl]-2,5-diazabicyclo[2.2.1]hept-2-yl}phenyl)ethanol] | < 1000
18 | CC(=O)c1ccc(N2C(=O)C3(CCN(CC(=O)N4CCN(C5CCC5)CC4)CC3)c3ccccc32)cc1 [Compound 332, 1-(4-acetylphenyl)-1′-[2-(4-cyclobutylpiperazin-1-yl)-2-oxoethyl]spiro[indole-3,4′-piperidin]-2(1H)-one] | < 1000
19 | CC(=O)c1ccc(N2CCN(CC(=O)N3CCN(C4CCC4)CC3)CC2=O)cc1 [Compound 333, 1-(4-acetylphenyl)-4-[2-(4-cyclobutylpiperazin-1-yl)-2-oxoethyl]piperazin-2-one] | < 1000
20 | COc1cc(N2CCN(CC(=O)N3CCN(C4CCCC4)CC3)CC2)ccc1Br [Compound 334, 1-(4-bromo-3-methoxyphenyl)-4-[2-(4-cyclopentylpiperazin-1-yl)-2-oxoethyl]piperazine] | < 1000
21 | CCN1CCN(C(=O)CN2CCN(c3ccc(Br)c(OC)c3)CC2)CC1 [Compound 335, 1-(4-bromo-3-methoxyphenyl)-4-[2-(4-ethylpiperazin-1-yl)-2-oxoethyl]piperazine] | < 1000
22 | COc1cc(N2CCN(CC(=O)N3CCN(C(C)C)CC3)CC2)ccc1Br [Compound 336, 1-(4-bromo-3-methoxyphenyl)-4-[2-(4-isopropylpiperazin-1-yl)-2-oxoethyl]piperazine] | < 1000

Next, values leading:

Row | Ki [nM] | SMILES
23 | < 1000 | CC(=O)c1ccc(N2CCN(CC(=O)N3CCN(C4CCC4)CC3)[C@@H](C)C2)cc1 [Compound 307, 1-(4-{4-[2-(4-cyclobutylpiperazin-1-yl)-2-oxoethyl]-3-methylpiperazin-1-yl}phenyl)ethanone]
24 | < 1000 | CC(=O)c1ccc(N2CCN(CC(=O)N3CCN(C4CCC4)CC3)CC2)c(F)c1 [Compound 311, 1-(4-{4-[2-(4-cyclobutylpiperazin-1-yl)-2-oxoethyl]piperazin-1-yl}-3-fluorophenyl)ethanone]
25 | < 1000 | CC(=O)c1ccc(N2CCN(CC(=O)N3CCN(C4CCC4)CC3)CC2)cc1 [Compound 315, 1-(4-{4-[2-(4-cyclobutylpiperazin-1-yl)-2-oxoethyl]piperazin-1-yl}phenyl)ethanone]
26 | < 1000 | CC(=O)c1ccc(N2CCC(C(C)(C)C(=O)N3CCN(C4CCCC4)CC3)CC2)cc1 [Compound 322, 1-(4-{4-[2-(4-cyclopentylpiperazin-1-yl)-1,1-dimethyl-2-oxoethyl]piperidin-1-yl}phenyl)ethanone]
27 | < 1000 | CC(=O)c1ccc(N2CCN(C(C)C(=O)N3CCN(C4CCCC4)CC3)CC2)cc1 (stereo not drawn) [Compound 323, 1-(4-{4-[2-(4-cyclopentylpiperazin-1-yl)-1-methyl-2-oxoethyl]piperazin-1-yl}phenyl)ethanone]
28 | < 1000 | CCC(=O)c1ccc(N2CCN(CC(=O)N3CCN(C4CCCC4)CC3)CC2)cc1 [Compound 324, 1-(4-{4-[2-(4-cyclopentylpiperazin-1-yl)-2-oxoethyl]piperazin-1-yl}phenyl)propan-1-one]
29 | < 1000 | CC(=O)c1ccc(N2CCN(CC(=O)N3CCN(C4CCCC4)CC3)CC2)cc1 [Compound 327, 1-(4-{4-[2-(4-cyclopentylpiperazin-1-yl)-2-oxoethyl]piperazin-1-yl}phenyl)ethanone]
30 | < 1000 | CCC(C)N1CCN(C(=O)CN2CCN(c3ccc(Br)c(OC)c3)CC2)CC1 (stereo not drawn) [Compound 337, 1-(4-bromo-3-methoxyphenyl)-4-[2-(4-sec-butylpiperazin-1-yl)-2-oxoethyl]piperazine]
31 | < 1000 | O=C(CN1CCN(c2ccc(Br)cc2)CC1)N1CCN(C2CCCCC2)CC1 [Compound 338, 1-(4-bromophenyl)-4-[2-(4-cyclohexylpiperazin-1-yl)-2-oxoethyl]piperazine]
32 | < 1000 | CC(C)N1CCN(C(=O)CN2CCN(c3ccc(Br)cc3)CC2)CC1 [Compound 339, 1-(4-bromophenyl)-4-[2-(4-isopropylpiperazin-1-yl)-2-oxoethyl]piperazine]
33 | < 1000 | O=C(CN1CCN(c2ccc(-c3ccc(Cl)cc3F)cc2)CC1)N1CCN(C2CCC2)CC1 [Compound 341, 1-(4′-chloro-2′-fluorobiphenyl-4-yl)-4-[2-(4-cyclobutylpiperazin-1-yl)-2-oxoethyl]piperazine]
